# Entries after “also recorded” stand apart in the source; their conditions may differ. Read-outs that look alike come from different tables or passages of the source.
# Legend:
# 5-HT1E = biological target: T1, 5-HT1E (Homo sapiens, UniProt P28566); assay: NIMH PDSP radioligand binding, 5-HT1E; settings: radioligand [3H]5-HT, n=4
# T1 construct: purchased NIMH Psychoactive Drug Screening Program (PDSP)
# Alpha1B = biological target: T2, Alpha1B (Homo sapiens, UniProt P35368); assay: NIMH PDSP radioligand binding, Alpha1B; settings: radioligand [3H]prazosine, n=4
# T2 construct: purchased NIMH Psychoactive Drug Screening Program (PDSP)
# canine BGT1 = biological target: T3, canine BGT1 (Canis lupus familiaris, UniProt P27799); assay: [3H]GABA uptake at canine BGT1 endogenously expressed in MDCK II cells; assay type: cell-based
# T3 construct: the MDCK II cell line express BGT1 endogenously; endogenous in cells; host or cells: MDCK II
# T3 sequence (P27799 1-614): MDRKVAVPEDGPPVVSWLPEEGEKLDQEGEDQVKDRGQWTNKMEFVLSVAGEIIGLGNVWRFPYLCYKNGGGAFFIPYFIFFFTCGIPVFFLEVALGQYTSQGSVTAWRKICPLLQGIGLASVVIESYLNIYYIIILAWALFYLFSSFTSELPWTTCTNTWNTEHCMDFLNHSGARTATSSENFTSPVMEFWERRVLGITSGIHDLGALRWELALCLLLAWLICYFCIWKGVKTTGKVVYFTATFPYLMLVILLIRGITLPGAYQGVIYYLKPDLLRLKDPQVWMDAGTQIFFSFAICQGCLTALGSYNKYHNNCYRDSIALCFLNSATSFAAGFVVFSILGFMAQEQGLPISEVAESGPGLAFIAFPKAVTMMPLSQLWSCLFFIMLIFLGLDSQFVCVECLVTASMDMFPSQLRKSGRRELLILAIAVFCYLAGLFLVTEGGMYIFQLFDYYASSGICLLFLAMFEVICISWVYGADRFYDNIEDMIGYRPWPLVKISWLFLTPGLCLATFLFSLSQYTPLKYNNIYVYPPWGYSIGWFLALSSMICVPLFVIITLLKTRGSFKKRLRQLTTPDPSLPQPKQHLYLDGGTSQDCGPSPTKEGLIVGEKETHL
# Protocol: (§1) The HEK-293 and Flp-In CHO cell lines stably expressing mouse (m) and human (h) GATs, respectively, have been described previously and were cultured accordingly. The tsA201 cell line was used for transient expression while the MDCK II cell line express BGT1 endogenously. Both cell lines were cultured as described. tsA201 cells were transfected with DNA constructs (8 μg per 10 cm dish if not otherwise mentioned) using 40 μL PolyFect transfection reagent according to the manufacturer’s protocol (Qiagen, Venlo, Netherlands). The DNA constructs encoding hBGT1, hGAT1-3 [36], the mutated constructs hBGT1 Q299 and hGAT3 L314Q described previously, and hBGT Y453A were synthesized and sequence validated by Genscript (NJ, USA).
# (§2) The [^3H]GABA competition uptake assay was performed as previously described. A minor change, however, was introduced for uptake in MDCK II cells, in which 100 nM [^3H]GABA was used for a 15 min incubation period at 37 °C instead of 30 nM [^3H]GABA and 3 min incubation. Studies related to the inhibition curves with GABA and BPDBA at hBGT1 were obtained both with and without the presence of 10 μM ATP during the [^3H]GABA uptake assay.
# (§3) The [^3H]GABA uptake data was normalized to the percentage of total uptake in the individual experiments in the presence of the lowest compound concentration or no compound present. Data presented is the pooled data of at least three independent experiments with three technical replicates. Concentration–response curves (CRCs) were fitted with GraphPad Prism (version 8.2.1, Yosemite, GraphPad Software, San Diego, CA, USA) by non-linear regression to the sigmoidal concentration response model: Y=Bottom+(Top-Bottom)/1+10^LogIC50-X∗nH where Top is the Top plateau, Bottom is the Bottom plateau, X is the logarithm of the concentration of the compound, LogIC50 is the concentration giving a response halfway between Top and Bottom,and nH is the Hill slope.
# (§4) The best fit for CRCs obtained with the [^3H]GABA uptake assay was identified by the extra-sum-of-squares F test (for convenience referred to as F test).
# hGAT1 = biological target: T4, hGAT1 (Homo sapiens, UniProt P30531); assay: [3H]GABA uptake at hGAT1 stably expressed in CHO cells; assay type: cell-based; settings: for IC50: CHO
# T4 construct: expressed in transfected cells
# Protocol: as §1, §2, §3, §4
# mice = assay: Rotarod test of minimal motor impairment; assay type: in vivo, mouse
# Protocol: (§5) The rotarod test was performed just prior to the three seizure tests.
# (§6) Probit analysis was used to analyse the efficacy and tolerability results obtained from the dose–response studies and to calculate the median effective (ED50) dose, the median toxic dose (TD50), and the 95% confidence interval.
# [1] = Rotarod test of minimal motor impairment; assay type: in vivo, mouse; settings: mouse, in vivo, ip; CF-1 mice of the MES test; probit analysis
# Protocol: as §5, §6
# T4 sequence (P30531 whole entry): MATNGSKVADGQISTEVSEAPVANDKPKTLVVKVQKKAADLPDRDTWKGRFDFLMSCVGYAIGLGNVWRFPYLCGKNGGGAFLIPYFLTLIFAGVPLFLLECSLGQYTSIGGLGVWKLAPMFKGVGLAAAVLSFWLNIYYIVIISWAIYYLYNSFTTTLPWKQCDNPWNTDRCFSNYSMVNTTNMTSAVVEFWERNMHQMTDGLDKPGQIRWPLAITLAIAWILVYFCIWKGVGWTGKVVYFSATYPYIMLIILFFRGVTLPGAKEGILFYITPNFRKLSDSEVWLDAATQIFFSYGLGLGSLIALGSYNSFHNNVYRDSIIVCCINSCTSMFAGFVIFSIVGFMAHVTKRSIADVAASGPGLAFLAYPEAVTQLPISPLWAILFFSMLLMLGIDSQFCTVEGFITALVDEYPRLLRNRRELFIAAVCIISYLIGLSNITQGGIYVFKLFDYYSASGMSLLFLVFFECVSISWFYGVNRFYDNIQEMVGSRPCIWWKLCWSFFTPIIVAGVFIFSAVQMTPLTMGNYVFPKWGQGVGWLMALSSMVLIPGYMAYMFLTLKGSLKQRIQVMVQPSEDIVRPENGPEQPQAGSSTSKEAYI
# T2 sequence (P35368 whole entry): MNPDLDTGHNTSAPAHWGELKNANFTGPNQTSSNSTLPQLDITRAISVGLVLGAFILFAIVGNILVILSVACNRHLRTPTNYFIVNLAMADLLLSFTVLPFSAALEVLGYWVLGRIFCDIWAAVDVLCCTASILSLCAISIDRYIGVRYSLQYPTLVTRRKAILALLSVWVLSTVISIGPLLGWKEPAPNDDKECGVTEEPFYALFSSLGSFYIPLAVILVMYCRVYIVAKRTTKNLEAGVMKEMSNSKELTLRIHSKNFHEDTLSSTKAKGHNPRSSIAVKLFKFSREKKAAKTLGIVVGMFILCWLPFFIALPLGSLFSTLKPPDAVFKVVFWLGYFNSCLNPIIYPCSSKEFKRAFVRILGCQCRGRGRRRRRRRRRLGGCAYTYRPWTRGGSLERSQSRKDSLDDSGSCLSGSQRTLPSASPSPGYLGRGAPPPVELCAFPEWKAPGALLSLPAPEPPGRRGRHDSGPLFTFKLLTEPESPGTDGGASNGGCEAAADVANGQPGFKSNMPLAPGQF
# T1 sequence (P28566 whole entry): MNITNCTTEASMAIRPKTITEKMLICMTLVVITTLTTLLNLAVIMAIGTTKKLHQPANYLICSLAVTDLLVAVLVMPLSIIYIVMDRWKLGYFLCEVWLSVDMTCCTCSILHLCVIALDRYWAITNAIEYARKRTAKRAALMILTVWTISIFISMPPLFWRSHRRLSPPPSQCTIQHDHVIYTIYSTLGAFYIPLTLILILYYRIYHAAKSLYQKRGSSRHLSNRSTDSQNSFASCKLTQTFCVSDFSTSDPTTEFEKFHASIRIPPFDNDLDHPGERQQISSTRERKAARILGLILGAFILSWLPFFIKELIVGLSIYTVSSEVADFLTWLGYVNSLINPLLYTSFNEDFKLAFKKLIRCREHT
structure (smiles),measurement,setting,value
"Cc1ccsc1C(=CCCN(C)[C@H]1CCCC[C@H]1C(=O)O)c1sccc1C [SBV2-114, (1R,2S)-2-((4,4-bis(3-methylthiophen-2-yl)but-3-en-yl)(methyl)amino)cyclohexanecarboxylic acid]",inhibition at 10 µM,5-HT1E,-12.9%
same,inhibition at 10 µM,Alpha1B,1.9%
same,Frac,canine BGT1,0.38
same,IC50,"canine BGT1; IC50, high affinity component, biphasic fit, 100 nM [3H]GABA, 15 min",0.1 µM
same,IC50,"canine BGT1; pIC50 ± S.E.M., high affinity component, biphasic fit, 100 nM [3H]GABA, 15 min",0.105 µM
same,IC50,"canine BGT1; read-out: IC50, low affinity component, biphasic fit, 100 nM [3H]GABA, 15 min",251 µM
same,IC50,"hGAT1; ambiguous fit, N=2",566 µM
same,IC50,"hGAT1; monophasic fit, N=1",476 µM
same,Fit,hGAT1; preferred model per experiment,Ambiguous; also recorded: Monophasic
same,#Motor impairment/#Tested,"mice; CF-1 mice, prior to MES, 50 mg/kg i.p., 15 min",0/3
same,#Motor impairment/#Tested,"mice; CF-1 mice, prior to MES, 100 mg/kg i.p., 15 min",0/4
same,#Motor impairment/#Tested,"mice; CF-1 mice, prior to MES, 125 mg/kg i.p., 15 min",0/7
same,#Motor impairment/#Tested,"mice; CF-1 mice, prior to MES, 150 mg/kg i.p., 15 min",2/6
same,#Motor impairment/#Tested,"mice; CF-1 mice, prior to MES, 200 mg/kg i.p., 15 min",3/4
same,#Motor impairment/#Tested,"mice; CF-1 mice, prior to s.c.PTZ, 150 mg/kg i.p., 30 min",0/8
same,#Motor impairment/#Tested,"mice; Frings mice, 50 mg/kg i.p., 15 min",0/3
same,#Motor impairment/#Tested,"mice; Frings mice, 50 mg/kg i.p., 30 min",0/3
same,#Motor impairment/#Tested,"mice; Frings mice, 50 mg/kg i.p., 60 min",0/3
same,#Motor impairment/#Tested,"mice; Frings mice, 50 mg/kg i.p., 120 min",0/3
same,#Motor impairment/#Tested,"mice; Frings mice, 120 mg/kg i.p., 30 min",0/4
same,#Motor impairment/#Tested,"mice; Frings mice, 120 mg/kg i.p., 60 min",0/4
same,#Motor impairment/#Tested,"mice; Frings mice, 120 mg/kg i.p., 120 min",0/4
same,#Motor impairment/#Tested,"mice; Frings mice, 120 mg/kg i.p., 240 min",0/4
same,TD50 at 15 min,[1],163 mg/kg

# From article PMC7297817, “Pharmacological Characterization of a Betaine/GABA Transporter 1 (BGT1) Inhibitor Displaying an Unusual Biphasic Inhibition Profile and Anti-seizure Effects” (Neurochemical Research, 2020)
